The values that follow come from US10138242B2, “Pyrazolopyridine derivatives and their use in therapy” (HELMHOLTZ ZENTRUM MUENCHEN—DEUTSCHES FORSCHUNGSZENTRUM FUER …, priority 2015, dated 2018).

Molecules are shown by their SMILES.

Assay [1] concerns T. brucei brucei bloodstream form parasites (strain Lister 427). Description: Antitrypanosomal activity assay (resazurin; FIG. 2). Conditions: Trypanosoma brucei; 66 h + 6 h resazurin. Type of assay: cell-based. The protocol: (A) The trypanosoma cell count and growth were evaluated at different doses of compounds of the invention.
Antitrypanosomal activity was tested on T. brucei brucei bloodstream from parasites (strain—Lister 427, VATMITat 1.2). Stock solutions of compounds (50 mM) were prepared in DMSO. Two fold serial dilutions of each compound (10 wells in each row) were prepared in 96 well plates in HMI111 medium (100 μl/well; quadruplicates; cf. also Hirumi et al., J. Parasitol. 75 (1989), 985-989). One well without compound, and one well with media alone were included in each row. […] The plates were incubated for 66 hours at 37° C. in the incubator with 5% CO2. 20 μl resazurin (Sigma, 0.125 mg/ml in Hanks Balanced Salt Solution) was added to all wells and the plate was further incubated for 6 hours. Change in color of resazurin (blue to pink) by living cells was measured with a 96 well plate reader (excitation at 530 nm, emission at 585 nm, filter cut-off: 570 nm). Percent inhibition values were calculated by setting the well without compound to “0% inhibition”.

Assay [2] deals with PEX5-PEX14 complex (biotin-coupled PEX5 peptide, His-tagged T. brucei PEX14) (Trypanosoma brucei brucei, UniProt Q38CL4). Description: biochemical. Type of assay: binding. The conditions noted are these: 30 nM PEX5, 30 nM PEX14; quadruplicate; read-out: AlphaScreen EC50 [μM] (±SD). The source says:
(§1) The assay uses two types of beads: donor beads are coupled with streptavidin, and acceptor beads are coupled with an anti His-tag antibody. Upon excitation with light of a wavelength of 680 nm the donor beads produce reactive oxygen species that travel in solution only for a limited distance. If the acceptor beads are within that travel distance, it will absorb the reactive oxygen and emit light in the range of 520-620 nm. […] Thus, PEX5-PEX14 complex dissociation by a ligand caused decrease in light emission as the donor and acceptor beads were separated. Typically, we used 30 nM PEX5, 30 nM PEX14 and bead concentrations of 5 μg/mL. The PEX5-PEX14 complex was incubated with varying concentrations of inhibitor for 1 hour. Next, the beads were added and the system allowed to equilibrate for another hour. The raw data were fitted to four parameter sigmoidal curves by Origin software and EC50 values calculated. Each measurement was performed in quadruplicate and every experiment was accompanied with blank and reference samples (using non-biotynylated PEX5 peptide as a binding competitor).

Assay [3] concerns PEX5-PEX14 complex (biotin-coupled PEX5 peptide, His-tagged T. brucei PEX14). Description: biochemical. Type of assay: binding. The conditions noted are these: 30 nM PEX5, 30 nM PEX14; quadruplicate; read-out: AlphaScreen EC50 [μM] (±SD).
From the text: as §1

Chain of PEX5-PEX14 complex (biotin-coupled PEX5 peptide, His-tagged T. brucei PEX14) (Trypanosoma brucei brucei, UniProt Q38CL4) (Q38CL4 1-366, one chain of several): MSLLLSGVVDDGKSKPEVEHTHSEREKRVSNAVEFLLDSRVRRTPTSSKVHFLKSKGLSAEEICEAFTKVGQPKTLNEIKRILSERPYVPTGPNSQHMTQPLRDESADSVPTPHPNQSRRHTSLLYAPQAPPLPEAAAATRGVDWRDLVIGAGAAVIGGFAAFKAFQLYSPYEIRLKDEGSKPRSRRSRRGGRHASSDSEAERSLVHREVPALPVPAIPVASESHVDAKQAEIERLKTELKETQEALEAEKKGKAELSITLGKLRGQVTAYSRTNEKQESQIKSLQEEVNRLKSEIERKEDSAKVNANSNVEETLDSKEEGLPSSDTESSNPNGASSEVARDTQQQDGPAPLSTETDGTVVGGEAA

On to `O=C(NCc1cccc2ccccc12)c1nn(CCO)c2c1CN(Cc1cccc(-c3ccccc3)c1)CC2` [Compound 39], for which the IC50 in assay [1] was 5.5 µM. The EC50 in assay [2] stood at 12.7 µM.
For `O=C(NCc1cccc2ccccc12)c1nn(CCO)c2c1CN(Cc1cccc3cccnc13)CC2` [Compound 45], in that order: 10.7 µM and 53.8 µM.
As for `O=C(NCc1cccc2ccccc12)c1nn(CCO)c2c1CN(Cc1ccc(C(F)(F)F)cc1)CC2` [Compound 48], in assay [1], the IC50 was found to be 5.4 µM. Besides, the EC50 in assay [2] turned out to be 34 µM.
Consider `CCCc1ccc(CN2CCc3c(c(C(=O)NCc4cccc5ccccc45)nn3CCO)C2)cc1` [Compound 49], for which the IC50 in assay [1] came to 2.7 µM. In addition, the EC50 in assay [2] is 32.5 µM.
Turning to `O=C(NCc1cccc2ccccc12)c1nn(CCO)c2c1CN(Cc1cccc3cc[nH]c13)CC2` [Compound 53], the IC50 in assay [1] is 6.8 µM. Also, in assay [2], the EC50 stood at 39.8 µM.
For the compound `O=C(NCc1cccc2ccccc12)c1nn(CCO)c2c1CN(Cc1cccc3c1OCO3)CC2` [Compound 54], the IC50 in assay [1] was determined as 19 µM. In addition, the EC50 in assay [2] came to 84.4 µM.
As to `COc1ccc(CN2CCc3c(c(C(=O)NCc4cccc5[nH]ccc45)nn3CCO)C2)c2ccccc12` [Compound 60], the IC50 in assay [1] turned out to be 5.6 µM. In addition, in assay [2], the EC50 turned out to be 20.2 µM.
The corresponding values for `COc1ccc(CN2CCc3c(c(C(=O)NCc4cccc5cccnc45)nn3CCO)C2)c2ccccc12` [Compound 61] are 7 µM and 24.1 µM.
For `COc1ccc(CN2CCc3c(c(C(=O)NCc4cccc(C)c4)nn3CCO)C2)c2ccccc12` [Compound 62], in that order: 4.5 µM and 38.1 µM.
Regarding `COc1ccc(CN2CCc3nn(CCO)c(C(=O)NCc4cccc5ccccc45)c3C2)c2ccccc12` [Compound 90], in assay [1], the IC50 is 3.3 µM. Also, the EC50 in assay [2] was 66.1 µM.
With `COc1ccc(CN2CCc3nn4c(c3C2)C(=O)N(Cc2cccc3ccccc23)CC4)c2ccccc12` [Compound 91], the IC50 in assay [1] was found to be 6.4 µM. The EC50 in assay [2] was found to be 19.2 µM.
As to `COc1ccc(CN2CCc3c(c(C(=O)NCc4cccc5ccccc45)nn3CCNC(=N)N)C2)c2ccccc12` [Compound 94], the IC50 in assay [1] was determined as 0.74 µM. For the same compound, in assay [2], the EC50 turned out to be 1.4 µM.
Consider `COc1ccc(CN2CCc3c(c(C(=O)NCc4cccc5ccccc45)nn3CCN)C2)c2c1CCCC2` [Compound 100], for which, in assay [1], the IC50 turned out to be 0.05 µM. Also, the EC50 in assay [2] turned out to be 4.62 µM.
For `NCCn1nc(C(=O)NCc2cccc3ccccc23)c2c1CCN(Cc1ccc(Cl)cc1)C2` [Compound 103], in that order: 0.18 µM and 10 µM.
As for `COc1ccc(CN2CCc3c(c(C(=O)NCc4cccc5ccccc45)nn3CC(O)CN)C2)c2ccccc12` (stereo not shown) [Compound 104], the IC50 in assay [1] is 0.2 µM. In addition, in assay [2], the EC50 stood at 10.6 µM.
The corresponding values for `NCCn1nc(C(=O)NCc2cccc3ccccc23)c2c1CCN(Cc1ccc(Cl)c(Cl)c1)C2` [Compound 105] are 0.34 µM and 11.6 µM.
With `COc1ccc2c(CN3CCc4c(c(C(=O)NCc5cccc6ccccc56)nn4CCO)C3)c[nH]c2c1` [Compound 106], in assay [1], the IC50 turned out to be 4.6 µM. In addition, the EC50 in assay [2] is 25 µM.
With `COc1ccc(CN2CCc3c(c(C(=O)NCc4cc(F)cc5ccccc45)nn3CCO)C2)c2ccccc12` [Compound 107], in assay [1], the IC50 stood at 2.9 µM. Also, in assay [2], the EC50 came out at 28.7 µM.
As for `COc1ccc2[nH]c(CN3CCc4c(c(C(=O)NCc5cccc6ccccc56)nn4CCO)C3)cc2c1` [Compound 110], the IC50 in assay [1] was 2.6 µM. The EC50 in assay [2] is 43.8 µM.
Regarding `COc1ccc2c(OC)ccc(CN3CCc4c(c(C(=O)NCc5cccc6ccccc56)nn4CCO)C3)c2c1` [Compound 111], in assay [3], the EC50 is 52.9 µM.
On to `COc1ccc2cc(CN3CCc4c(c(C(=O)NCc5cccc6ccccc56)nn4CCO)C3)ccc2c1` [Compound 114], for which the IC50 in assay [1] was 3.9 µM. Besides, the EC50 in assay [2] came to 121 µM.
Regarding `O=C(NCc1cccc2ccccc12)c1nn(CCO)c2c1CN(Cc1ccc(F)c3ccccc13)CC2` [Compound 115], the IC50 in assay [1] stood at 5.9 µM. For the same compound, the EC50 in assay [2] was found to be 121 µM.
